Data on 24 molecules can be found in patent publication US20240208934A1, “ULK1/2 INHIBITORS AND THEIR USE THEREOF” (LifeArc, priority 2021, published 2024).

This assay deals with ULK. Nature of the assay: ULK radiometric assay (33P incorporation onto MBP substrate, glass fiber capture filter). Particulars: ULK Biochemical activity; 20 uM ATP, 0.2 mg/mL MBP; averages of at least two independent experiments. The procedure:
ULK activity was measured using a radiometric assay, to measure the incorporation of radiolabelled ^33P onto MBP substrate using a glass fiber capture filter method. Reaction conditions were 0.2 mg/mL MBP, 20 uM ATP (0.25 μCi/well), 50 mM Tris HCl, pH7.5, 10 mM MgCl2, 0.1% beta-mercaptoethanol, 0.1 mM EGTA, 0.01% BSA. Ten point Half log Compound dilution series were prepared in 100% DMSO and added to the reaction to give final assay concentration of 10% DMSO. Compounds were tested in duplicate and values normalized to 10% DMSO only controls. The data were fitted to a four parameter fit equation and the IC50 values shown are averages of at least two independent experiments.

Each structure is given as a SMILES string.

Consider `COc1ccc(CO)cc1Nc1ncc(C(F)(F)F)c(NCCCN2CCCCC2=O)n1` [Example 47, 1-[3-[[2-[5-(Hydroxymethyl)-2-methoxy-anilino]-5-(trifluoromethyl)pyrimidin-4-yl]amino]propyl]piperidin-2-one], for which the IC50 is not below 1000 nM.

Take `CC(=O)N1CCc2cc(Cl)c(Nc3ncc(C(F)(F)F)c(NCCCN4CCCCC4=O)n3)cc2C1` [Example 56, 1-[3-[[2-[(2-Acetyl-6-chloro-3,4-dihydro-1H-isoquinolin-7-yl)amino]-5-(trifluoromethyl)pyrimidin-4-yl]amino]propyl]piperidin-2-one]: the IC50 was 200 to 1000 nM.

`COc1nn(CC(C)(C)O)cc1Nc1ncc(C(F)(F)F)c(NCCCN2CCCCC2=O)n1` [Example 28] displayed an IC50 of less than 200 nM.

For the molecule `O=C1CCCCN1CCCNc1nc(Nc2ccc(N3CCOCC3)cc2Cl)ncc1C(F)(F)F` [Example 54, 1-[3-[[2-(2-Chloro-4-morpholino-anilino)-5-(trifluoromethyl)pyrimidin-4-yl]amino]propyl]piperidin-2-one], the IC50 is less than 200 nM.

As to `COc1cc2c(cc1Nc1ncc(C(F)(F)F)c(NCC3CNCCO3)n1)CNCC2` (stereo not drawn) [Example 78, N2-(6-methoxy-1,2,3,4-tetrahydroisoquinolin-7-yl)-N4-(morpholin-2-ylmethyl)-5-(trifluoromethyl)pyrimidine-2,4-diamine], the 50% inhibitory concentration (IC50) was 200 to 1000 nM.

`O=C1CCCCN1CCCNc1nc(Nc2ccc3c(c2)CNCC3)ncc1C(F)(F)F` [Example 83, 1-[3-[[2-(1,2,3,4-Tetrahydroisoquinolin-7-ylamino)-5-(trifluoromethyl)pyrimidin-4-yl]amino]propyl]piperidin-2-one]: the half-maximal inhibitory concentration (IC50) is less than 200 nM.

The molecule `CN(C)S(=O)(=O)c1cc2c(c(Nc3ncc(C(F)(F)F)c(NCCCN4CCCCC4=O)n3)c1)OCC2` [Example 50, N,N-dimethyl-7-[[4-[3-(2-oxo-1-piperidyl)propylamino]-5-(trifluoromethyl)pyrimidin-2-yl]amino]-2,3-dihydrobenzofuran-5-sulfonamide] displayed a half-inhibitory concentration (IC50) not below 1000 nM.

Regarding `COc1cc2c(cc1Nc1ncc(C(F)(F)F)c(NC3CCN(S(C)(=O)=O)CC3)n1)CNCC2` [Example 72, N2-(6-methoxy-1,2,3,4-tetrahydroisoquinolin-7-yl)-N4-(1-methylsulfonyl-4-piperidyl)-5-(trifluoromethyl)pyrimidine-2,4-diamine], the IC50 is not below 1000 nM.

Consider `COc1nn(CCN(C)C)cc1Nc1ncc(C(F)(F)F)c(NCCCN2CCCCC2=O)n1` [Example 3, 1-(3-((2-((1-(2-(Dimethylamino)ethyl)-3-methoxy-1H-pyrazol-4-yl)amino)-5-(trifluoromethyl)pyrimidin-4-yl)amino)propyl) piperidin-2-one], for which the IC50 is less than 200 nM.

For `COc1cc2c(cc1Nc1ncc(C3CC3)c(NCCCN3CCCCC3=O)n1)CNCC2` [Example 75, 1-[3-[[5-Cyclopropyl-2-[(6-methoxy-1,2,3,4-tetrahydroisoquinolin-7-yl)amino]pyrimidin-4-yl]amino]propyl]piperidin-2-one], the half-maximal inhibitory concentration (IC50) lay in the range of 200 to 1000 nM.

Molecule `COc1cc(COC(C)C)ccc1Nc1ncc(C(F)(F)F)c(NCCCN2CCCCC2=O)n1` [Example 35, 1-[3-[[2-[4-(Isopropoxymethyl)-2-methoxy-anilino]-5-(trifluoromethyl)pyrimidin-4-yl]amino]propyl]piperidin-2-one] displayed a half-maximal inhibitory concentration (IC50) not below 1000 nM.

`CN1CCC(Oc2cccc(Nc3ncc(C(F)(F)F)c(NCCCN4CCCCC4=O)n3)c2)CC1` [Example 8, 1-[3-[[2-[3-[(1-Methyl-4-piperidyl)oxy]anilino]-5-(trifluoromethyl)pyrimidin-4-yl]amino]propyl]piperidin-2-one] showed an IC50 of less than 200 nM.

With `COc1cc2c(cc1Nc1ncc(C(F)(F)F)c(NC3CCN(C(C)=O)CC3)n1)CNCC2` [Example 68, 1-[4-[[2-[(6-Methoxy-1,2,3,4-tetrahydroisoquinolin-7-yl)amino]-5-(trifluoromethyl)pyrimidin-4-yl]amino]-1-piperidyl]ethanone], the 50% inhibitory concentration (IC50) is not below 1000 nM.

In turn, `CN1CCc2cc(Nc3ncc(C4CC4)c(NCCCN4CCCC4=O)n3)ccc2C1` [Example 9, 1-[3-[[5-cyclopropyl-2-[(2-methyl-3,4-dihydro-1H-isoquinolin-6-yl)amino]pyrimidin-4-yl]amino]propyl]pyrrolidin-2-one] had an IC50 of less than 200 nM.

In turn, `O=C1CCCCN1CCCNc1nc(Nc2cc3c(cc2C(F)(F)F)CCNC3)ncc1C(F)(F)F` [Example 45, 1-[3-[[5-(Trifluoromethyl)-2-[[6-(trifluoromethyl)-1,2,3,4-tetrahydroisoquinolin-7-yl]amino]pyrimidin-4-yl]amino]propyl]piperidin-2-one] returned a half-inhibitory concentration (IC50) of less than 200 nM.

Molecule `COc1cc2c(cc1Nc1ncc(C(F)(F)F)c(NCCC(=O)N3CCOCC3)n1)CNCC2` [Example 79, 3-[[2-[(6-Methoxy-1,2,3,4-tetrahydroisoquinolin-7-yl)amino]-5-(trifluoromethyl)pyrimidin-4-yl]amino]-1-morpholino-propan-1-one] returned an IC50 of 200 to 1000 nM.

The molecule `CNC(=O)c1ccc(Nc2ncc(C(F)(F)F)c(NCCCN3CCCCC3=O)n2)c(OC)c1` [Example 39, 3-Methoxy-N-methyl-4-[[4-[3-(2-oxo-1-piperidyl)propylamino]-5-(trifluoromethyl)pyrimidin-2-yl]amino]benzamide] displayed an IC50 not below 1000 nM.

On to `FC(F)(F)c1cnc(Nc2ccc3c(c2)CCNC3)nc1NCC1CNCCO1` (stereo not drawn) [Example 63, N4-(morpholin-2-ylmethyl)-N2-(1,2,3,4-tetrahydroisoquinolin-6-yl)-5-(trifluoromethyl)pyrimidine-2,4-diamine], for which the concentration for half-maximal inhibition (IC50) is less than 200 nM.

On to `COc1ccc(CN2CCOCC2)cc1Nc1ncc(C(F)(F)F)c(NCCCN2CCCCC2=O)n1` [Example 61, 1-[3-[[2-[2-Methoxy-5-(morpholinomethyl)anilino]-5-(trifluoromethyl)pyrimidin-4-yl]amino]propyl]piperidin-2-one], for which the IC50 is not below 1000 nM.

As for `CN1CCC(O)(c2ccc(Nc3ncc(C4CC4)c(NCCCN4CCCCC4=O)n3)cc2)CC1` [Example 14, 1-(3-((5-Cyclopropyl-2-((4-(4-hydroxy-1-methylpiperidin-4-yl)phenyl)amino)pyrimidin-4-yl)amino)propyl)piperidin-2-one], the half-maximal inhibitory concentration (IC50) was less than 200 nM.

`CN1CCc2cc(Nc3ncc(C4CC4)c(NC4CC4)n3)ccc2C1` [Example 17, N4,5-dicyclopropyl-N2-(2-methyl-1,2,3,4-tetrahydroisoquinolin-6-yl)pyrimidine-2,4-diamine] yielded a half-inhibitory concentration (IC50) of less than 200 nM.

`FC(F)(F)c1cnc(Nc2ccc(N3CCOCC3)cc2)nc1NCCc1c[nH]cn1` [Example 91, N4-[2-(1H-imidazol-4-yl)ethyl]-N2-(4-morpholinophenyl)-5-(trifluoromethyl)pyrimidine-2,4-diamine]: the half-inhibitory concentration (IC50) was 200 to 1000 nM.

`COCc1ccc(Nc2ncc(C(F)(F)F)c(NCCCN3CCCCC3=O)n2)c(OC)c1` [Example 34, 1-[3-[[2-[2-Methoxy-4-(methoxymethyl)anilino]-5-(trifluoromethyl)pyrimidin-4-yl]amino]propyl]piperidin-2-one] showed an IC50 not below 1000 nM.

`FC(F)(F)c1cnc(Nc2ccc(CCN3CCCC3)cc2)nc1NCc1cc[nH]n1` [Example 86, N4-(1H-pyrazol-3-ylmethyl)-N2-[4-(2-pyrrolidin-1-ylethyl)phenyl]-5-(trifluoromethyl)pyrimidine-2,4-diamine] showed an IC50 of 200 to 1000 nM.
